{"source": "ChEMBL document CHEMBL4680315", "about": "“Synthesis and anticancer potential of novel 5,6-oxygenated and/or halogenated steroidal d-homo lactones” (Bioorg Med Chem, 2021)", "note": "Activity calls are given as the source filed them. The calls are words filed in the database; no cut-off is given here."}
{"system": "MCF7", "assay": "Cytotoxicity activity against human MCF7 assessed as inhibition of cell growth measured after 72 hrs by MTT assay", "type": "functional, cell-based", "conditions": "MCF7, 72 h", "units": {"IC50": "µM"}}
{"smiles": "CO[C@@H]1C[C@H]2[C@@H]3CC(=O)OC[C@@]3(C)CC[C@@H]2[C@@]2(C)CC[C@H](O)C[C@]12O", "IC50": 73.6}
{"smiles": "CC(=O)O[C@H]1CC[C@]2(C)[C@H]3CC[C@]4(C)COC(=O)C[C@H]4[C@@H]3C[C@@H](Cl)[C@@]2(Cl)C1", "IC50": "> 100"}
{"smiles": "CC(=O)O[C@H]1CC[C@]2(C)[C@H]3CC[C@]4(C)COC(=O)C[C@H]4[C@@H]3C[C@@H]3O[C@@]32C1", "IC50": "> 100"}
{"smiles": "CC(=O)O[C@H]1CC[C@]2(C)[C@H]3CC[C@]4(C)COC(=O)C[C@H]4[C@@H]3C[C@@H](Br)[C@@]2(Br)C1", "IC50": 34.9}
{"smiles": "CC(=O)O[C@H]1CC[C@]2(C)[C@H]3CC[C@]4(C)COC(=O)C[C@H]4[C@@H]3C[C@H]3O[C@]32C1", "IC50": 100}
{"system": "MDA-MB-231", "assay": "Cytotoxicity against human MDA-MB-231 cells assessed as cell growth inhibition measured after 72 hrs by MTT assay", "type": "functional, cell-based", "conditions": "MDA-MB-231, 72 h", "units": {"IC50": "µM"}}
{"smiles": "CO[C@@H]1C[C@H]2[C@@H]3CC(=O)OC[C@@]3(C)CC[C@@H]2[C@@]2(C)CC[C@H](O)C[C@]12O", "IC50": 3.38}
{"smiles": "CC(=O)O[C@H]1CC[C@]2(C)[C@H]3CC[C@]4(C)COC(=O)C[C@H]4[C@@H]3C[C@@H](Cl)[C@@]2(Cl)C1", "IC50": 23.7}
{"smiles": "CC(=O)O[C@H]1CC[C@]2(C)[C@H]3CC[C@]4(C)COC(=O)C[C@H]4[C@@H]3C[C@@H]3O[C@@]32C1", "IC50": 6.16}
{"smiles": "CC(=O)O[C@H]1CC[C@]2(C)[C@H]3CC[C@]4(C)COC(=O)C[C@H]4[C@@H]3C[C@@H](Br)[C@@]2(Br)C1", "IC50": 13.3}
{"smiles": "CC(=O)O[C@H]1CC[C@]2(C)[C@H]3CC[C@]4(C)COC(=O)C[C@H]4[C@@H]3C[C@H]3O[C@]32C1", "IC50": 33.9}
{"system": "PC-3", "assay": "Cytotoxicity against human PC-3 cells assessed as cell growth inhibition measured after 72 hrs by MTT assay", "type": "functional, cell-based", "conditions": "PC-3, 72 h", "units": {"IC50": "µM"}}
{"smiles": "CO[C@@H]1C[C@H]2[C@@H]3CC(=O)OC[C@@]3(C)CC[C@@H]2[C@@]2(C)CC[C@H](O)C[C@]12O", "IC50": 10.8}
{"smiles": "CC(=O)O[C@H]1CC[C@]2(C)[C@H]3CC[C@]4(C)COC(=O)C[C@H]4[C@@H]3C[C@@H](Cl)[C@@]2(Cl)C1", "IC50": "> 100"}
{"smiles": "CC(=O)O[C@H]1CC[C@]2(C)[C@H]3CC[C@]4(C)COC(=O)C[C@H]4[C@@H]3C[C@@H]3O[C@@]32C1", "IC50": "> 100"}
{"smiles": "CC(=O)O[C@H]1CC[C@]2(C)[C@H]3CC[C@]4(C)COC(=O)C[C@H]4[C@@H]3C[C@@H](Br)[C@@]2(Br)C1", "IC50": "> 100"}
{"smiles": "CC(=O)O[C@H]1CC[C@]2(C)[C@H]3CC[C@]4(C)COC(=O)C[C@H]4[C@@H]3C[C@H]3O[C@]32C1", "IC50": "> 100"}
{"system": "HeLa", "assay": "Cytotoxicity against human Hela cells assessed as cell growth inhibition measured after 72 hrs by MTT assay", "type": "functional, cell-based", "conditions": "not given", "units": {"IC50": "µM"}}
{"smiles": "CO[C@@H]1C[C@H]2[C@@H]3CC(=O)OC[C@@]3(C)CC[C@@H]2[C@@]2(C)CC[C@H](O)C[C@]12O", "IC50": 27}
{"smiles": "CC(=O)O[C@H]1CC[C@]2(C)[C@H]3CC[C@]4(C)COC(=O)C[C@H]4[C@@H]3C[C@@H](Cl)[C@@]2(Cl)C1", "IC50": 25.9}
{"smiles": "CC(=O)O[C@H]1CC[C@]2(C)[C@H]3CC[C@]4(C)COC(=O)C[C@H]4[C@@H]3C[C@@H]3O[C@@]32C1", "IC50": 99.2}
{"smiles": "CC(=O)O[C@H]1CC[C@]2(C)[C@H]3CC[C@]4(C)COC(=O)C[C@H]4[C@@H]3C[C@@H](Br)[C@@]2(Br)C1", "IC50": 9.46}
{"smiles": "CC(=O)O[C@H]1CC[C@]2(C)[C@H]3CC[C@]4(C)COC(=O)C[C@H]4[C@@H]3C[C@H]3O[C@]32C1", "IC50": 16.9}
{"system": "HT-29", "assay": "Cytotoxicity against human HT-29 cells assessed as cell growth inhibition measured after 72 hrs by MTT assay", "type": "functional, cell-based", "conditions": "HT-29, 72 h", "units": {"IC50": "µM"}}
{"smiles": "CO[C@@H]1C[C@H]2[C@@H]3CC(=O)OC[C@@]3(C)CC[C@@H]2[C@@]2(C)CC[C@H](O)C[C@]12O", "IC50": "> 100"}
{"smiles": "CC(=O)O[C@H]1CC[C@]2(C)[C@H]3CC[C@]4(C)COC(=O)C[C@H]4[C@@H]3C[C@@H](Cl)[C@@]2(Cl)C1", "IC50": 10.8}
{"smiles": "CC(=O)O[C@H]1CC[C@]2(C)[C@H]3CC[C@]4(C)COC(=O)C[C@H]4[C@@H]3C[C@@H]3O[C@@]32C1", "IC50": "> 100"}
{"smiles": "CC(=O)O[C@H]1CC[C@]2(C)[C@H]3CC[C@]4(C)COC(=O)C[C@H]4[C@@H]3C[C@@H](Br)[C@@]2(Br)C1", "IC50": 16.2}
{"smiles": "CC(=O)O[C@H]1CC[C@]2(C)[C@H]3CC[C@]4(C)COC(=O)C[C@H]4[C@@H]3C[C@H]3O[C@]32C1", "IC50": 14}
{"system": "A549", "assay": "Cytotoxicity against human A549 cells assessed as cell growth inhibition measured after 72 hrs by MTT assay", "type": "functional, cell-based", "conditions": "A549, 72 h", "units": {"IC50": "µM"}}
{"smiles": "CO[C@@H]1C[C@H]2[C@@H]3CC(=O)OC[C@@]3(C)CC[C@@H]2[C@@]2(C)CC[C@H](O)C[C@]12O", "IC50": "> 100"}
{"smiles": "CC(=O)O[C@H]1CC[C@]2(C)[C@H]3CC[C@]4(C)COC(=O)C[C@H]4[C@@H]3C[C@@H](Cl)[C@@]2(Cl)C1", "IC50": 15.5}
{"smiles": "CC(=O)O[C@H]1CC[C@]2(C)[C@H]3CC[C@]4(C)COC(=O)C[C@H]4[C@@H]3C[C@@H]3O[C@@]32C1", "IC50": "> 100"}
{"smiles": "CC(=O)O[C@H]1CC[C@]2(C)[C@H]3CC[C@]4(C)COC(=O)C[C@H]4[C@@H]3C[C@@H](Br)[C@@]2(Br)C1", "IC50": 36.9}
{"smiles": "CC(=O)O[C@H]1CC[C@]2(C)[C@H]3CC[C@]4(C)COC(=O)C[C@H]4[C@@H]3C[C@H]3O[C@]32C1", "IC50": "> 100"}
{"system": "MRC5", "assay": "Cytotoxicity against human MRC5 cells assessed as cell growth inhibition measured after 72 hrs by MTT assay", "type": "cell-based", "conditions": "MRC5, 72 h", "units": {"IC50": "µM"}}
{"smiles": "CO[C@@H]1C[C@H]2[C@@H]3CC(=O)OC[C@@]3(C)CC[C@@H]2[C@@]2(C)CC[C@H](O)C[C@]12O", "IC50": "> 100"}
{"smiles": "CC(=O)O[C@H]1CC[C@]2(C)[C@H]3CC[C@]4(C)COC(=O)C[C@H]4[C@@H]3C[C@@H](Cl)[C@@]2(Cl)C1", "IC50": "> 100"}
{"smiles": "CC(=O)O[C@H]1CC[C@]2(C)[C@H]3CC[C@]4(C)COC(=O)C[C@H]4[C@@H]3C[C@@H]3O[C@@]32C1", "IC50": "> 100"}
{"smiles": "CC(=O)O[C@H]1CC[C@]2(C)[C@H]3CC[C@]4(C)COC(=O)C[C@H]4[C@@H]3C[C@@H](Br)[C@@]2(Br)C1", "IC50": "> 100"}
{"smiles": "CC(=O)O[C@H]1CC[C@]2(C)[C@H]3CC[C@]4(C)COC(=O)C[C@H]4[C@@H]3C[C@H]3O[C@]32C1", "IC50": "> 100"}
{"system": "MDA-MB-231", "assay": "Induction of apoptosis in human MDA-MB-231 cells assessed as late apoptotic cells by measuring red colour signal measured after 72 hrs by fluorescent double-staining method", "type": "functional, cell-based", "conditions": "not given"}
{"smiles": "CO[C@@H]1C[C@H]2[C@@H]3CC(=O)OC[C@@]3(C)CC[C@@H]2[C@@]2(C)CC[C@H](O)C[C@]12O", "Activity": "Active"}
{"smiles": "CC(=O)O[C@H]1CC[C@]2(C)[C@H]3CC[C@]4(C)COC(=O)C[C@H]4[C@@H]3C[C@@H](Cl)[C@@]2(Cl)C1", "Activity": "Active"}
{"smiles": "CC(=O)O[C@H]1CC[C@]2(C)[C@H]3CC[C@]4(C)COC(=O)C[C@H]4[C@@H]3C[C@@H]3O[C@@]32C1", "Activity": "Active"}
{"smiles": "CC(=O)O[C@H]1CC[C@]2(C)[C@H]3CC[C@]4(C)COC(=O)C[C@H]4[C@@H]3C[C@@H](Br)[C@@]2(Br)C1", "Activity": "Active"}
{"smiles": "CC(=O)O[C@H]1CC[C@]2(C)[C@H]3CC[C@]4(C)COC(=O)C[C@H]4[C@@H]3C[C@H]3O[C@]32C1", "Activity": "Active"}
{"system": "HT-29", "assay": "Induction of apoptosis in human HT-29 cells assessed as late apoptotic cells by measuring red colour signal measured after 72 hrs by fluorescent double-staining method", "type": "functional, cell-based", "conditions": "not given"}
{"smiles": "CC(=O)O[C@H]1CC[C@]2(C)[C@H]3CC[C@]4(C)COC(=O)C[C@H]4[C@@H]3C[C@@H](Cl)[C@@]2(Cl)C1", "Activity": "Active"}
{"system": "A549", "assay": "Induction of apoptosis in human A549 cells assessed as late apoptotic cells by measuring red colour signal measured after 72 hrs by fluorescent double-staining method", "type": "functional, cell-based", "conditions": "not given"}
{"smiles": "CC(=O)O[C@H]1CC[C@]2(C)[C@H]3CC[C@]4(C)COC(=O)C[C@H]4[C@@H]3C[C@@H](Cl)[C@@]2(Cl)C1", "Activity": "Active"}
{"smiles": "CC(=O)O[C@H]1CC[C@]2(C)[C@H]3CC[C@]4(C)COC(=O)C[C@H]4[C@@H]3C[C@@H](Br)[C@@]2(Br)C1", "Activity": "Active"}
{"target": "T1, Estrogen receptor (Homo sapiens) (UniProt P03372)", "T1 sequence (whole entry)": "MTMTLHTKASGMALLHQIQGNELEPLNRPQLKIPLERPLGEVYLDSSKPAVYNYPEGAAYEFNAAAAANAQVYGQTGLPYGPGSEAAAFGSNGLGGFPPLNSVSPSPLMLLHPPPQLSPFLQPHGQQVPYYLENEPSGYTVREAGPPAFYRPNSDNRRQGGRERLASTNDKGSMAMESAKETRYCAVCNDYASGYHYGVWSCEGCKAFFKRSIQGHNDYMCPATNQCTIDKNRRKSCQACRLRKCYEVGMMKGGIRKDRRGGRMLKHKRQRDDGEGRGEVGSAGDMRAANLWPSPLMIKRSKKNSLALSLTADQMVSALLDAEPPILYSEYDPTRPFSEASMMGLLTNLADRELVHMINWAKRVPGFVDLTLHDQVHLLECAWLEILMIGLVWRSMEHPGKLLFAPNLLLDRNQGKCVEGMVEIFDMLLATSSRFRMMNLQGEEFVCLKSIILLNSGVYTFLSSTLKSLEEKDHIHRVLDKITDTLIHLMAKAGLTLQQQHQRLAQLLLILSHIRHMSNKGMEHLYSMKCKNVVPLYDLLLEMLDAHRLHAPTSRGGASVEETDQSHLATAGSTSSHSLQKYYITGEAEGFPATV", "assay": "Binding affinity to EYFP-tagged human ERalpha-LBD expressed in Saccharomyces cerevisiae FY250 strain assessed as fluorescence intensity at 10 uM incubated for 14 to 16 hrs by fluorescence spectroscopy based fluorescence microscopy relative to control", "conditions": "time 14-16 hrs"}
{"smiles": "CC(=O)O[C@H]1CC[C@]2(C)[C@H]3CC[C@]4(C)COC(=O)C[C@H]4[C@@H]3C[C@@H](Br)[C@@]2(Br)C1", "Activity": "Active"}
{"smiles": "CC(=O)O[C@H]1CC[C@]2(C)[C@H]3CC[C@]4(C)COC(=O)C[C@H]4[C@@H]3C[C@H]3O[C@]32C1", "Activity": "Active"}
